Results reported in PubChem BioAssay AID196 (DTP/NCI, 2004).
Several values for one entry are separate records, joined by “and”; a condition that tells them apart may be missing. Equal entries are not always repeated. Toxic doses and inconclusive results are not listed. Rule for the calls: active = survival T/C of 150% or more; inactive = T/C below 125% in these data.

Test system: BDF1 mice, intracerebral B16 melanoma, median survival T/C
Experiment: NCI In Vivo Anticancer Drug Screen. Data for tumor model B16 Melanoma (intracerebral) in B6D2F1 (BDF1) mice
Details: endpoint: median survival time, higher = longer survival
Method: The antitumor activity of compounds was measured in mice bearing transplantable tumors. Survival or tumor size were measured and the results are expressed as the measurement made in the treated group (T) divided by the measurement made in the vehicle treated control group (C). The tumor model used in this assay is B16 Melanoma (intracerebral) in B6D2F1 (BDF1) mice

[1] = dose: 17.8 mg/kg/injection, schedule: Q01DX001 (ip), vehicle: Klucel (hydroxypropylcellulose) (HPC)
[2] = dose: 26.7 mg/kg/injection, schedule: Q01DX001 (ip), vehicle: Klucel (hydroxypropylcellulose) (HPC)
[3] = dose: 40.0 mg/kg/injection, schedule: Q01DX001 (ip), vehicle: Klucel (hydroxypropylcellulose) (HPC)
[4] = dose: 0.25 mg/kg/injection, schedule: Q01DX009 (ip), vehicle: saline
[5] = dose: 0.5 mg/kg/injection, schedule: Q01DX009 (ip), vehicle: saline
[6] = dose: 1.0 mg/kg/injection, schedule: Q01DX009 (ip), vehicle: saline
[7] = dose: 2.0 mg/kg/injection, schedule: Q01DX009 (ip), vehicle: saline
[8] = dose: 4.0 mg/kg/injection, schedule: Q01DX009 (ip), vehicle: saline
[9] = dose: 60.0 mg/kg/injection, schedule: Q01DX001 (ip), vehicle: Klucel (hydroxypropylcellulose) (HPC)
[10] = dose: 0.75 mg/kg/injection, schedule: Q01DX009 (ip), vehicle: saline
[11] = dose: 12.5 mg/kg/injection, schedule: Q01DX009 (ip), vehicle: saline

Measured: T/C

O=NN(CCCl)C(=O)NC1CCC(=O)NC1=O (centres undefined)
inactive: dose: 0.5 mg/kg/injection, schedule: Q01DX009 (ip), vehicle: saline with Tween-80 108 % of control | dose: 4.32 mg/kg/injection, schedule: Q01DX001 (ip), vehicle: Klucel (hydroxypropylcellulose) (HPC) 111 % of control | dose: 6.48 mg/kg/injection, schedule: Q01DX001 (ip), vehicle: other 120 % of control | dose: 7.2 mg/kg/injection, schedule: Q01DX001 (ip), vehicle: Klucel (hydroxypropylcellulose) (HPC) 122 % of control | dose: 16.0 mg/kg/injection, schedule: Q01DX009 (ip), vehicle: saline with Tween-80 89 % of control | [3] 120 % of control
active: dose: 2.0 mg/kg/injection, schedule: Q01DX009 (ip), vehicle: saline with Tween-80 153 % of control | dose: 4.0 mg/kg/injection, schedule: Q01DX009 (ip), vehicle: saline with Tween-80 202 % of control | dose: 8.0 mg/kg/injection, schedule: Q01DX009 (ip), vehicle: saline with Tween-80 337 % of control | dose: 11.9 mg/kg/injection, schedule: Q01DX001 (ip), vehicle: Klucel (hydroxypropylcellulose) (HPC) 172 % of control | dose: 12.0 mg/kg/injection, schedule: Q01DX001 (ip), vehicle: Klucel (hydroxypropylcellulose) (HPC) 150 % of control | [1] 201 % of control | dose: 18.0 mg/kg/injection, schedule: Q01DX001 (ip), vehicle: other 338 % of control | dose: 20.0 mg/kg/injection, schedule: Q01DX001 (ip), vehicle: Klucel (hydroxypropylcellulose) (HPC) 204 % of control | [2] 187 % of control

COc1cc([C@@H]2c3cc4c(cc3[C@@H](OC3OC5CO[C@@H](c6cccs6)OC5C(O)C3O)[C@H]3COC(=O)[C@H]23)OCO4)cc(OC)c1O (some centres undefined)
inactive: [4] 96 % of control | [5] 107 % of control | dose: 0.5 mg/kg/injection, schedule: Q01DX009 (ip), vehicle: water 91 % of control | [6] 95 % of control and 100 % of control | dose: 1.0 mg/kg/injection, schedule: Q01DX009 (ip), vehicle: water 104 % of control | [7] 100 % of control and 108 % of control | dose: 2.0 mg/kg/injection, schedule: Q01DX009 (ip), vehicle: water 95 % of control | [8] 104 % of control

O=NN(CCF)C(=O)NC1C(O)CCCC1O (centres undefined)
active: [3] 160 % of control | [9] 171 % of control | dose: 60.0 mg/kg/injection, schedule: Q01DX001 (ip), vehicle: saline 189 % of control
inactive: dose: 13.0 mg/kg/injection, schedule: Q01DX001 (ip), vehicle: saline 115 % of control | [1] 120 % of control | dose: 21.6 mg/kg/injection, schedule: Q01DX001 (ip), vehicle: saline 111 % of control

COc1ccc(C(=O)/C(Br)=C/C(=O)O)cc1
inactive: dose: 10.0 mg/kg/injection, schedule: Q01DX005 (ip), vehicle: saline 91 % of control and 105 % of control | dose: 20.0 mg/kg/injection, schedule: Q01DX005 (ip), vehicle: saline 90 % of control and 93 % of control | dose: 40.0 mg/kg/injection, schedule: Q01DX005 (ip), vehicle: saline 97 % of control and 99 % of control

O=C1C(NCCO)=C(N2CC2)C(=O)C(NCCO)=C1N1CC1
inactive: dose: 0.09 mg/kg/injection, schedule: Q01DX009 (ip), vehicle: saline 97 % of control | dose: 0.19 mg/kg/injection, schedule: Q01DX009 (ip), vehicle: saline 103 % of control | dose: 0.38 mg/kg/injection, schedule: Q01DX009 (ip), vehicle: saline 109 % of control | [10] 100 % of control

O=P1(N(CCCl)CCCl)NCCCO1 (centres undefined)
inactive: [11] 116 % of control and 92 % of control | dose: 12.5 mg/kg/injection, schedule: Q01DX009 (ip), vehicle: water 108 % of control | dose: 25.0 mg/kg/injection, schedule: Q01DX009 (ip), vehicle: saline 100 % of control and 108 % of control | dose: 25.0 mg/kg/injection, schedule: Q01DX009 (ip), vehicle: water 116 % of control | dose: 50.0 mg/kg/injection, schedule: Q01DX009 (ip), vehicle: saline 120 % of control and 121 % of control | dose: 100.0 mg/kg/injection, schedule: Q01DX009 (ip), vehicle: saline 95 % of control | dose: 100.0 mg/kg/injection, schedule: Q01DX009 (ip), vehicle: water 104 % of control

C[n+]1c2ccccc2nc2c(N)cc(N)cc21
inactive: dose: 4.0 mg/kg/injection, schedule: Q01DX005 (ip), vehicle: suspension in saline 93 % of control | dose: 8.0 mg/kg/injection, schedule: Q01DX005 (ip), vehicle: suspension in saline 92 % of control and 98 % of control | dose: 16.0 mg/kg/injection, schedule: Q01DX005 (ip), vehicle: suspension in saline 100 % of control and 103 % of control | dose: 32.0 mg/kg/injection, schedule: Q01DX005 (ip), vehicle: suspension in saline 93 % of control and 97 % of control

S=P(N1CC1)(N1CC1)N1CC1
inactive: [6] 108 % of control (2×) and 113 % of control | [7] 100 % of control | [8] 120 % of control and 122 % of control
active: dose: 8.0 mg/kg/injection, schedule: Q01DX009 (ip), vehicle: saline 172 % of control

COc1cccc2c1C(=O)c1c(O)c3c(c(O)c1C2=O)C[C@@](O)(C(=O)CO)C[C@@H]3OC1CC(N)C(O)C(C)O1 (some centres undefined)
inactive: dose: 0.13 mg/kg/injection, schedule: Q01DX009 (ip), vehicle: saline 91 % of control | [4] 108 % of control | dose: 0.25 mg/kg/injection, schedule: Q03HX008 (ip), vehicle: saline 100 % of control | [5] 112 % of control | dose: 0.5 mg/kg/injection, schedule: Q03HX008 (ip), vehicle: saline 100 % of control | [6] 104 % of control | dose: 1.0 mg/kg/injection, schedule: Q03HX008 (ip), vehicle: saline 107 % of control | [7] 108 % of control | dose: 2.0 mg/kg/injection, schedule: Q03HX008 (ip), vehicle: saline 96 % of control | [8] 116 % of control

COc1ccc2c(c1)CCC(c1ccccc1)=C2c1ccc(OCCN2CCCC2)cc1
inactive: dose: 3.0 mg/kg/injection, schedule: Q01DX005 (ip), vehicle: Klucel (hydroxypropylcellulose) (HPC) 97 % of control | dose: 6.0 mg/kg/injection, schedule: Q01DX005 (ip), vehicle: Klucel (hydroxypropylcellulose) (HPC) 97 % of control | dose: 12.0 mg/kg/injection, schedule: Q01DX005 (ip), vehicle: Klucel (hydroxypropylcellulose) (HPC) 95 % of control and 105 % of control | dose: 24.0 mg/kg/injection, schedule: Q01DX005 (ip), vehicle: Klucel (hydroxypropylcellulose) (HPC) 124 % of control and 96 % of control and 108 % of control | dose: 48.0 mg/kg/injection, schedule: Q01DX005 (ip), vehicle: Klucel (hydroxypropylcellulose) (HPC) 92 % of control and 112 % of control | dose: 96.0 mg/kg/injection, schedule: Q01DX005 (ip), vehicle: Klucel (hydroxypropylcellulose) (HPC) 100 % of control

CNc1nc(N(C)C)nc(N(C)C)n1
inactive: [11] 102 % of control and 106 % of control

O=C1C(=O)c2ccccc2C(O)=C1CC=C(Cl)Cl
inactive: dose: 10.0 mg/kg/injection, schedule: Q01DX005 (ip), vehicle: Klucel (hydroxypropylcellulose) (HPC) 101 % of control | dose: 20.0 mg/kg/injection, schedule: Q01DX005 (ip), vehicle: Klucel (hydroxypropylcellulose) (HPC) 98 % of control | dose: 40.0 mg/kg/injection, schedule: Q01DX005 (ip), vehicle: Klucel (hydroxypropylcellulose) (HPC) 106 % of control

C[C@@H]1C[C@H]2[C@@H]3CCC4=CC(=O)C=C[C@]4(C)[C@@]3(F)[C@@H](O)C[C@]2(C)[C@@]1(O)C(=O)CO
inactive: [10] 108 % of control | dose: 1.5 mg/kg/injection, schedule: Q01DX009 (ip), vehicle: saline 104 % of control | dose: 3.0 mg/kg/injection, schedule: Q01DX009 (ip), vehicle: saline 118 % of control and 104 % of control | dose: 6.0 mg/kg/injection, schedule: Q01DX009 (ip), vehicle: saline 104 % of control and 112 % of control | dose: 12.0 mg/kg/injection, schedule: Q01DX009 (ip), vehicle: saline 122 % of control

O=NN(CCF)C(=O)NC1CCC(=O)NC1=O (centres undefined)
active: [9] 157 % of control
inactive: [2] 115 % of control | [3] 111 % of control

CN(Cc1cnc2nc(N)nc(N)c2n1)c1c(Cl)cc(C(=O)NC(CCC(=O)O)C(=O)O)cc1Cl (centres undefined)
inactive: dose: 8.0 mg/kg/injection, schedule: Q01DX009 (ip), vehicle: Klucel (hydroxypropylcellulose) (HPC) 100 % of control | dose: 16.0 mg/kg/injection, schedule: Q01DX009 (ip), vehicle: Klucel (hydroxypropylcellulose) (HPC) 110 % of control | dose: 32.0 mg/kg/injection, schedule: Q01DX009 (ip), vehicle: Klucel (hydroxypropylcellulose) (HPC) 94 % of control | dose: 64.0 mg/kg/injection, schedule: Q01DX009 (ip), vehicle: Klucel (hydroxypropylcellulose) (HPC) 96 % of control | dose: 128.0 mg/kg/injection, schedule: Q01DX009 (ip), vehicle: Klucel (hydroxypropylcellulose) (HPC) 100 % of control
